Experimental data published in ChEMBL document CHEMBL1201862, “PubChem BioAssay data set” (2004).
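A five-concentration, 48-hour dose response in 96-well plates underlies each endpoint, interpolated linearly between surrounding concentrations. GI50: concentration for 50% inhibition of growth.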 The source made the active and inactive calls. Rule as the data show it: active = GI50 up to about 1.1 µM and inactive = higher.

Columns and labels:
Test in all cases: NCI-60 cell line screen, 48 h
[1] = system: 786-0
[2] = system: HOP-92
[3] = system: IGROV-1
[4] = system: K562
[5] = system: LXFL 529
[6] = system: MOLT-4
[7] = system: SN12C
[8] = system: SNB-75
[9] = system: SW-620
[10] = system: UACC-257
[11] = system: UACC-62
[12] = system: COLO 205
[13] = system: HCC 2998
[14] = system: HOP-62
[15] = system: NCI-H460
[16] = system: OVCAR-8
[17] = system: RXF 393

Measured: GI50

N#CCc1nnc(N)o1
inactive: [1] > 100 µM | [2] > 100 µM | [3] > 100 µM | [4] > 100 µM | [5] > 100 µM | [6] > 100 µM | [7] > 100 µM | [8] > 100 µM | [9] > 100 µM | [10] > 100 µM | [11] > 100 µM

O=C(NCCS(=O)(=O)N1C(=O)C2CCCN2C(=O)[C@@H]1Cc1ccccc1)OCc1ccccc1 (stereo partly specified)
inactive: [1] 78.9 µM | [12] 26.2 µM | [13] 24 µM | [14] 99.8 µM | [2] 27.7 µM | [3] 72.6 µM | [4] 47.9 µM | [5] 34 µM | [6] 48 µM | [15] 40.4 µM | [16] 69.8 µM | [17] 38 µM | [7] 52.8 µM | [8] 33.3 µM | [9] 90.4 µM | [10] 48.2 µM | [11] 40 µM

O=C1CC2C(=O)N(Cc3ccccc3)C1C=C2S(=O)(=O)c1ccccc1 (stereo unspecified)
inactive: [1] > 100 µM | [12] > 100 µM | [13] > 100 µM | [14] > 100 µM | [2] > 100 µM | [3] > 100 µM | [4] > 100 µM | [5] > 100 µM | [6] > 100 µM | [15] > 100 µM | [16] > 100 µM | [17] > 100 µM | [7] > 100 µM | [8] > 100 µM | [9] > 100 µM | [10] > 100 µM | [11] > 100 µM

CC(C)N(C(=O)C12C3C4C1C1C2C3C41C#N)C(C)C (stereo unspecified)
inactive: [1] > 100 µM | [12] > 100 µM | [13] > 100 µM | [14] > 100 µM | [2] > 100 µM | [3] > 100 µM | [4] > 69.2 µM | [5] > 100 µM | [6] > 100 µM | [15] > 100 µM | [16] > 100 µM | [17] > 100 µM | [7] > 100 µM | [8] > 84.7 µM | [9] > 54.5 µM | [10] > 100 µM | [11] > 100 µM

CCCCC/C=C1\CCC(CN(C)C)C1=O (stereo unspecified)
inactive: [1] 2.71 µM | [12] 8.99 µM | [13] 16.9 µM | [14] 17.7 µM | [2] 11.5 µM | [3] 17.5 µM | [4] 1.94 µM | [5] 1.82 µM | [6] 1.95 µM | [15] 31.5 µM | [16] > 21.5 µM | [7] 14.7 µM | [8] 16.2 µM | [9] 3.76 µM | [10] 16.3 µM | [11] 15.9 µM

CC1(C)CCc2cc3c(cc2O1)OCC1c2cc4c(cc2OC31)OCO4 (stereo unspecified)
inactive: [1] > 100 µM | [12] > 100 µM | [13] > 100 µM | [14] > 100 µM | [2] > 100 µM | [3] > 100 µM | [4] 71.1 µM | [5] > 100 µM | [6] > 100 µM | [15] 54.5 µM | [16] > 100 µM | [17] > 100 µM | [7] > 100 µM | [8] > 100 µM | [9] > 100 µM | [10] 28 µM | [11] > 100 µM

NNC(=S)N/N=C(/C(=O)Nc1cc(Cl)ccc1Cl)C1C(=O)Nc2ccccc2[S+]1[O-] (stereo unspecified)
inactive: [1] > 100 µM | [12] > 100 µM | [13] > 100 µM | [14] > 100 µM | [2] > 100 µM | [3] > 100 µM | [4] > 100 µM | [5] > 100 µM | [6] 78.9 µM | [15] > 100 µM | [16] > 100 µM | [17] > 100 µM | [7] > 100 µM | [8] > 100 µM | [9] > 100 µM | [10] > 100 µM | [11] > 100 µM

Cc1cccc(C)c1NC(=O)CCCC(=O)C1/C(=N/NC(=O)CC#N)CCC/C1=N\NC(=O)CC#N (stereo unspecified)
inactive: [1] > 100 µM | [12] > 100 µM | [13] > 100 µM | [14] > 100 µM | [2] 48.8 µM | [3] > 100 µM | [4] > 100 µM | [5] > 100 µM | [6] > 100 µM | [15] > 100 µM | [16] > 100 µM | [7] > 100 µM | [8] > 100 µM | [9] > 100 µM | [10] > 100 µM | [11] > 100 µM

C=CC(=O)NC(=N)NC#N
inactive: [1] 163 µM | [12] 149 µM | [13] 182 µM | [14] 210 µM | [2] > 39.4 µM | [3] 181 µM | [4] 35.9 µM | [5] 124 µM | [15] 176 µM | [16] 214 µM | [17] > 73.5 µM | [7] 157 µM | [8] 155 µM | [9] > 76.2 µM | [10] 125 µM | [11] 157 µM

CN(C)c1c([O-])c(=[N+](C)C)c1=O
inactive: [1] > 100 µM | [13] > 100 µM | [14] > 100 µM | [2] > 100 µM | [3] > 100 µM | [4] > 100 µM | [5] > 100 µM | [6] > 100 µM | [15] > 100 µM | [16] > 100 µM | [17] > 100 µM | [7] > 100 µM | [8] > 100 µM | [9] > 100 µM | [10] > 100 µM | [11] > 100 µM

CCOC(=O)Cc1csc(Nc2ccc(OCC)cc2)n1
inactive: [1] > 100 µM | [12] > 100 µM | [13] > 100 µM | [14] > 100 µM | [2] 47.4 µM | [3] > 100 µM | [4] 92.7 µM | [5] 87.3 µM | [6] 61.8 µM | [15] > 100 µM | [16] > 100 µM | [17] > 100 µM | [7] > 100 µM | [8] 40.4 µM | [9] > 100 µM | [10] > 100 µM

Cc1cc2c3ccccc3n(C)c2c2c1C(=O)c1ccccc1C2=O
inactive: [1] 16.5 µM | [12] 21.1 µM | [13] 18.3 µM | [14] 20.4 µM | [2] 13.5 µM | [3] 19.4 µM | [4] 20.4 µM | [5] 16.9 µM | [6] 5.83 µM | [16] 19.2 µM | [7] 19.2 µM | [8] 29.2 µM | [9] 25 µM | [10] 20 µM | [11] 20.8 µM
